Results taken from patent US10479814B2, “Adenosine receptor activation reagent and the uses of thereof” (Zhejiang Subtropical Crops Research Institute, priority 2014, dated 2019).

Tests used:
[1] = system: A1 receptor; conditions: cited from earlier work; for A1 selectivity: according to document record (Jacobson 1992); for selectivity to the A1 receptor (in words): existing A1 agonists
[2] = system: pentylenetetrazole induced convulsion; assay: pentylenetetrazole induced convulsion in mouse; assay type: in vivo; conditions: antagonist ip 10 min before HEA 40 mg/kg, DPCPX 2 mg/kg, ZM241385 1 and 5 mg/kg
Description: Male ICR mouse, 18˜22 g; purchased from Animal Experiment Center of Wenzhou Medical University. Before experiment, animals were adapted to environment for at least 5 days. Kept at 25 °C, food and water were freely fed. Based on the weight, the healthy male ICR mice were randomly divided into control group (1% DMSO, ip), model group, CCPA group (0.1 mg·kg^−1, ip), HEA group (15 mg/kg, 40 mg/kg, 60 mg/kg), DPCPX group (2 mg·kg^−1, ip), ZM241385 group (1 mg·kg^−1, 5 mg·kg^−1, ip), DPCPX+HEA (2 mg·kg^−1+40 mg/kg, ip) group and ZM241385+HEA (1 mg·kg^−1+40 mg/kg, 5 mg·kg^−1+40 mg/kg ip) group.
The survival time and mortality after convulsion were respectively recorded for each group.

SMILES	A1 selectivity [1]	selectivity to the A1 receptor (in words) [1]	effect of antagonist on the anti-convulsion action of the HEA [2]	effect of antagonist on the anti-convulsion action of the HEA ([2]; listed as Zm241385)
OC[C@H]1O[C@@H](n2cnc3c(NC4CCCC4)nc(Cl)nc32)[C@H](O)[C@@H]1O [CCPA]	1500 fold	strong selectivity to the A1 receptor		
OC[C@H]1O[C@@H](n2cnc3c(NC4CCCCC4)ncnc32)[C@H](O)[C@@H]1O [CHA]		strong selectivity to the A1 receptor		
OC[C@H]1O[C@@H](n2cnc3c(N[C@H]4CC5CCC4C5)ncnc32)[C@H](O)[C@@H]1O (stereo partly shown) [S-ENBA]	up to 4700 fold			
OC[C@H]1O[C@@H](n2cnc3c(NC4CCCC4)ncnc32)[C@H](O)[C@@H]1O [CPA]		strong selectivity to the A1 receptor		
Nc1nc(NCCc2ccc(O)cc2)nc2nc(-c3ccco3)nn12 [ZM241385]			no significant effect on the anti-convulsion effect of the HEA	no significant effect on the anti-convulsion action of the HEA
